Results reported in patent publication US11584712B2, “Alkylamine-substituted perthiocarbamates as dual precursors to hydropersulfide and carbonyl sulfide” (The Johns Hopkins University, priority 2020, dated 2023).
Values joined by “and” are separate entries in the source; they are usually repeats but may differ in a detail not shown here. Identical values can stand only once. “Also recorded” adds a separate entry of the source.

Columns and labels:
Format in all cases: physicochemical
[1] = Kinetics of RSSH release from precursors monitored by HPLC (HPE-IAM trapping); conditions: for Hydropersulfide Yield (%): precursor 100 μM, HPE-IAM 5 mM, pH 7.4 phosphate buffer with DTPA
Method: (§1) Precursors 7a-d were dissolved in DMSO to afford 10 mM stock solutions. HPE-IAM was dissolved in DMSO to obtain a 100 mM stock solution. […] This solution was pre-incubated for 10 min at 37° C. and then precursor 7a-d (30 μL, 10 mM) were independently added into the mixture. The resulting solution was incubated at 37° C. At different time points, an aliquot of 200 μL was taken and quenched with 200 μL […] solution. These samples were stored at 0° C. until HPLC analysis was performed. The sample (20 μL) was injected into a high-performance liquid chromatography (HPLC) equipped with Phenomenex C-18 reverse phase column (250 mm×4.6 mm, 5 μm). HPLC Method: mobile phase A (H2O) and mobile phase B (ACN), flow rate: 1 mL/min, run time: 20 min, the gradient elution method: 10% to 40% B from 0 to 12 min, 40% to 80% B from 12 to 20 min. The elution was monitored by a UV detector at 275 nm. A calibration curve was generated using RSS-HPE-AM 9 to quantify RSSH generation from 7a-d.
as §1, with “by a variable UV detector” for “by a UV detector”

[2] = COS release using membrane inlet mass spectrometry (MIMS); conditions: for COS release (m/z=60 signal): precursor 50 μM, pH 7.4 phosphate buffer saline with DTPA, 37° C.
Method: (§2) COS was analyzed using a Hiden HPR-40 MIMS system with a sample cell and membrane probe that have been optimized to detect gases dissolved in aqueous solution as described previously. Cline et al., 2011. A stock solution of N-acetyl-cysteine (25 mM) was prepared in DI water. RSSH precursor stock solutions (5 mM) were prepared in DMSO. These solutions were degassed by purging with nitrogen for 10 min before COS release analysis. Typically, 20 mL phosphate buffer solution (10 mM) was added to the sample cell, degassed and purged with a continuous flow of argon for 15 min. N-acetyl cysteine (200 μL, 25 mM) and RSSH precursor (200 μL, 5 mM) were then injected using a gas tight syringe and ion current at m/z 60 (COS^+) were collected for 2 h (source pressure was approximately 1×10^−7 to 5×10^−7 Torr).
as §2, with “(COS*)” for “(COS^+)”

[3] = RSSH generation in the presence of N-acetyl cysteine by UPLC-MS; conditions: NAC 500 μM, 37° C.; for Byproduct % (yield of cyclic urea 2a-d): precursor 100 μM, pH 7.4 ammonium bicarbonate buffer with DTPA
Method: […] The resulting mixture was incubated at 37° C. An aliquot (200 μL) of reaction mixture was withdrawn at specified time points and quenched with 1% formic acid (200 μL). 3-Amino-benzoic acid (50 μM) was added to each sample as internal standard prior to UPLC-MS analysis. To quantify 2a-d generated from these precursors, a calibration curve for each individual cyclic urea with known concentrations was independently generated.
[…] The resulting mixture was incubated at 37° C. An aliquot ([…]) of reaction mixture was withdrawn at specified time points and quenched with 1% formic acid (200 μL). 3-amino-benzoic acid (50 μM) was added to each sample as internal standard prior to UPLC-MS analysis. To quantify 2a-d generated from these precursors, the calibration curve of each individual cyclic urea with known concentrations was independently generated.

| Compound | Hydropersulfide Yield (%) ([1]; 37° C.) | COS release in the presence of GSH compared with NAC ([2]; pH 7.4, GSH) | COS release (m/z=60 signal) ([2]; NAC 0.25 mM (5 equiv.)) | RSSH release under acidic conditions ([3]; 7b 100 μM, pH 6.0 ammonium acetate buffer 50 mM, 12 h) | Byproduct % (yield of cyclic urea 2a-d) [3] | rate constant k of RSSH release ([1]; pH 6.0) | first-order rate constant k of RSSH release (RSS-HPE-AM 9 generation) ([1]; pH 7.4 phosphate buffer, HPE-IAM, 37° C., HPLC) | rate constant k of RSSH release ([1]; pH 8.0) | COS release (m/z=60 signal) ([2]; without NAC) |
| --- | --- | --- | --- | --- | --- | --- | --- | --- | --- |
| COC(=O)C(NC(C)=O)C(C)(C)SSC(=O)N(C)CCN (stereo not drawn) [Precursor 7b, 2-(((3-acetamido-4-methoxy-2-methyl-4-oxobutan-2-yl)disulfannecarbonyl)(methyl)amino)ethan-1-aminium] | 94 ± 1% | slightly higher/faster COS release | increased production of COS | still observed, albeit at a slower rate; also recorded: slow RSSH release under acidic conditions | 58% and 58 ± 0.7% |  |  |  |  |
| 3-(((3-acetamido-4-methoxy-2-methyl-4-oxobutan-2-yl)disulfannecarbonyl)(methyl)amino)-N-methylpropan-1-aminium [Precursor 7c] | 90% and 90 ± 1% |  | produce mainly COS |  | 19.2 ± 0.5% |  |  |  |  |
| CNCCN(C)C(=O)SSC(C)(C)C(NC(C)=O)C(=O)OC (stereo not drawn) [Precursor 7a, 2-(((3-acetamido-4-methoxy-2-methyl-4-oxobutan-2-yl)disulfannecarbonyl)(methyl)amino)-N-methylethan-1-aminium] | 89% and 89 ± 3% |  | small additional increase |  | 87% and 87 ± 1% | 0.031 min⁻¹ | 0.505 min⁻¹ and 0.505 ± 0.019 min⁻¹ | 2.58 min⁻¹ | very small increase |
